Measured values published in a melting point compilation (Tetko et al.; mined from patent text by program, amines drawn as free bases though some values may be those of a salt).

Point of comparison: `CC12CCC(C(=Cc3ccc([N+](=O)[O-])cc3)C1=O)C2(C)C` (stereo not given), melting point 158 °C. Against it:
- CC1CN(C)CC(C)(c2cccc(O)c2)O1 (stereo not given) — lower, 142 to 143 °C
- O=S1(=O)N=CN(C2CC2)c2cc(Br)c(F)cc21 — higher, 218 to 219 °C
- CCCCN(Sc1nc2ccccc2s1)C(C)(C)C — lower, 55 to 56 °C
- O=C(N[C@H](Cc1ccccc1)C(=O)O)OCc1ccc2oc(-c3ccccc3)nc2c1 — higher, 220 to 221 °C
- CC(C)CCN1C(=O)C(NC(=O)Oc2cccc(Br)c2)C(=O)N(c2ccccc2)c2ccc(Cl)cc21 (stereo not given) — lower, 144 to 145 °C
- CC/C(=C\Cn1oc(=O)[nH]c1=O)c1cccc(OCc2nc(-c3ccc(C(F)(F)F)cc3)oc2C)c1 — lower, 66 to 67 °C
- FC(F)(F)c1cccc(N(c2ccccc2)c2ccc(-c3ccc(N(c4ccccc4)c4cccc(C(F)(F)F)c4)cc3)cc2)c1 — lower, 150 °C
- C=CCCCn1c(=O)sc2c(=O)[nH]c(N)nc21 — higher, 240 to 243 °C
- CC(=O)OCCOc1ncnc(NS(=O)(=O)c2ccc(C)cc2)c1CCc1ccccc1 — lower, 120 to 123 °C
- CNC(=O)N1CCC(CN2CCC(NC(=O)c3cc(Cl)c(N)cc3OC)CC2)CC1 — higher, 202 to 204 °C
- CCCCc1nc2c(N)nc3ccccc3c2n1CCCC(C)=O — higher, 173 to 176 °C
- COCCCNc1ncnc2c1sc1nc(N3CCOCC3)c3c(c12)CC(C)(C)OC3 — higher, 178 to 179 °C
- CC(C)(C)NC(=O)[C@@H]1CCCN1C(=O)[C@@H](O)[C@H](Cc1ccccc1)NC(=O)[C@H](CC(N)=O)NC(=O)COc1ccc(NC(=O)CNCCN2CCOCC2)cc1 — lower, 123 to 132 °C
- O=C(OCC1CCN(CC2CSc3ccc(F)cc3C2)CC1)c1ccc(F)cc1 (stereo not given) — lower, 113 to 114 °C
- N#CSc1ccc(N)c(Br)c1 — lower, 74 to 79 °C
- O=C(O)CCc1[nH]nc2c1CCC2 — not separable, 157 to 159 °C
- CC(=O)N1CCN=C1Nc1ccnn1-c1ccc(F)cc1 — higher, 162 to 164 °C
- CC(=O)OCc1cccc(Cl)c1NS(=O)(=O)c1nc2nc(C)cc(C)n2n1 — higher, 214 to 217 °C
- Oc1ccc(N2CCN(Cc3nc4ccccc4s3)CC2)cc1 — higher, 175 to 176 °C
- FC(F)=C(F)CCSc1nc(-c2ccc(Cl)cc2)no1 — lower, 49 to 52 °C
- O=S(=O)(c1ccc(C(CC2CCOCC2)c2ccc(-c3ccc(Cn4cncn4)cn3)[nH]2)cc1)C1CC1 (stereo not given) — lower, 152 to 153 °C
- Fc1ccc(-c2cc(Cl)c3cc(F)ccc3n2)cc1 — lower, 130 to 133 °C
- CCOC(=O)c1c(N)n(C)c2cc(Cl)ccc12 — lower, 155 to 157 °C
- COC(=O)c1csc(CCCc2coc3nc(N)nc(N)c23)c1 — lower, 156 to 157 °C
- CNc1c([N+](=O)[O-])cc(C)cc1[N+](=O)[O-] — lower, 132 °C
- O=C(O)Cc1ccc(CC2CCCCC2=NO)cc1 (stereo not given) — higher, 180 to 184 °C
- NC(=O)c1snc(-c2cccc(C(F)(F)F)c2)c1N — lower, 124 °C
- COC1OCC[C@@H]1NC(=O)[C@H](CC(C)C)NC(=O)[C@H](CC(C)C)NC(=O)[C@H](CC(C)C)NC(=O)OCc1ccccc1 (stereo not given in full) — higher, 210 to 212 °C
- Cc1nc(N2CCN(C)CC2)nc(N)c1-c1cc(Cl)cc(Cl)c1Cl — not separable, 156 to 159 °C
- O=C(O)C1(N(Cc2noc(=O)[nH]2)S(=O)(=O)c2ccc(-c3ccc(Cl)cc3)cc2)CC1c1ccccc1 (stereo not given) — higher, 168 to 172 °C
- CCC(C)CNC1=NS(=O)(=O)c2sc(Cl)cc2N1 (stereo not given) — higher, 232 to 234 °C
- O=C(Nc1ccc(C(=O)N2C[C@@H]3CCCN3S(=O)(=O)c3ccccc32)cc1)c1ccccc1-c1ccccc1 — lower, 142 to 143 °C
- CCc1nn2ccc3c(c2c1C(C)=O)CCO3 — higher, 164 to 165 °C
- COc1ccc(Nc2ccc(Nc3ccnc4cc(-c5ccc(OC)nc5)sc34)cc2)cc1 — higher, 175 to 184 °C
- CC(C)(C)OC(=O)C(Nc1ccccc1)C(=O)N1CCCC1 (racemic) — lower, 80 °C
- CC(=O)OC1CN(c2c(F)cc3c(=O)c(C(=O)O)cn(C4CC4)c3c2F)C1 — higher, 259 to 262 °C
- COc1ccc(COc2cccnc2NC(=S)Nc2ccccc2)cc1 — lower, 123 to 125 °C
- CCOCc1cc2c(s1)CCCc1cc(=O)n(-c3ccc(C)cc3)nc1-2 — lower, 92 to 93 °C
- COC(=O)c1ccc(CC(C)NCC(O)c2cc(Cl)c(N)c(Cl)c2)cc1 (stereo not given) — lower, 97 to 115 °C
- O=C(O)C1(C2CCCc3ccccc32)CC1 (stereo not given) — lower, 140 to 142 °C
- Cc1ccc(N(CCN2CCC(C(=O)c3ccc(F)cc3)CC2)C(=O)c2ccc([N+](=O)[O-])cc2)cc1 — higher, 175 to 178 °C
- CN1C(=O)N2[C@H](c3cccc(O)c3)c3[nH]c4ccc(Br)cc4c3C[C@@]2(C)C1=O (racemic) — higher, 248 to 251 °C
- CN(Cc1ccc2c(Br)c(OCC#N)ccc2c1)C(=O)c1cn(C)c2ccccc12 — lower, 148 to 150 °C
- COc1cc(N)c(Cl)cc1C(=O)N[C@H]1CCN(CCNc2nccnc2C)C[C@H]1OC (relative stereo) — higher, 170 °C
- Cc1nc(NC(=O)c2cc(Cl)ccc2F)sc1C(=O)NCc1ccccc1 — higher, 175 to 178 °C
- CCCCCCSCCSc1nc(N)n[nH]1 — lower, 76.5 to 78 °C
- Clc1ccccc1-c1nc(-c2ccc3c(c2)OCO3)c(-c2ccc3c(c2)OCO3)[nH]1 — higher, 168 to 170 °C
- O=C(COc1ccccc1)Nc1ccccc1C(=O)O — higher, 201 to 203 °C
- COc1cc(Cl)ccc1C(=O)NC1CN(c2ccc(F)cc2)CCn2c1nc(-c1ccncn1)cc2=O (racemic) — higher, 207 to 209 °C
- O=S(=O)(Nc1cc(I)c(O)c2ccccc12)c1cccs1 — lower, 134 to 136 °C
- NS(=O)(=O)NC(=O)NCCCCC1CCSS1 (stereo not given) — lower, 123 to 125 °C
- CC(=O)Nc1ccc(S(=O)(=O)Nc2nnc(CC(=O)O)s2)cc1 — higher, 206 to 207 °C
- Cc1ccc(-c2ncc(OC3SCC(O)C(O)C3O)cc2F)cn1 (stereo not given) — higher, 184 °C
- Cc1c(OCC2CO2)noc1-c1ccccc1 (stereo not given) — lower, 87 to 88 °C
- O=C(O)CN1C(=O)C(=Cc2csc(Nc3ccccc3)n2)SC1=S — higher, 242 to 246 °C
- COc1c(Br)ccc2ccc(Cl)nc12 — lower, 130 to 132 °C
- Nc1ccc(-c2nnc(-c3ccccn3)nn2)nc1 — higher, 207 to 209 °C
- C=CCC1C(=O)CCCC1=O — lower, 125 to 127 °C
- CC1=C2C=c3c(cnn3CC(C)N=[N+]=[N-])=C2CC=C1 (racemic) — lower, 70 to 72 °C
- C[C@@H](n1cnc2cc(-c3ccc(C(=N)NCCN)cc3)sc2c1=O)[C@](O)(Cn1cncn1)c1ccc(F)cc1F — not separable, 154 to 161 °C
- CC(COS(C)(=O)=O)N1c2ccc(Cl)cc2Sc2ccc(C#N)cc21 (racemic) — lower, 132 °C
- COC(=O)[C@H]1CC[C@H](N2CCN(c3ccc(C4(C)CCN(C(=O)C(F)(F)F)CC4)cc3)C2=O)CC1 — not separable, 158 to 161 °C
- CCCC(C)Oc1cc(-n2c(=O)cc(C(F)(F)F)n(C)c2=O)c(F)cc1Cl (stereo not given) — lower, 94 to 97 °C
- CCNC(=O)Cn1c(=O)c(=O)[nH]c2ccc3ccc(-n4c(C)ccc4C)cc3c21 — higher, > 285 °C
- CC1CCC(Nc2ccccc2)c2ncc(C(=O)O)c(=O)n21 (stereo not given) — higher, 198 to 199 °C
- COc1ccc(CC2SC(=O)NC2=O)cc1C(=O)NCc1ccc(C(F)(F)F)cc1 (stereo not given) — higher, 176 to 178 °C
- O=C(O)Cc1ccc(-c2ccc(O)cc2)c(F)c1 — higher, 208 to 210 °C
- OCc1ccc(Cc2ccc3c(c2)OCO3)o1 — lower, 68 to 69 °C
- COc1cc2c(cc1OC)CC(N)CC2 (stereo not given) — lower, 83 to 86 °C
- CCOC(=O)c1c(O)c2ccccc2n(C)c1=O — lower, 67 °C
- O=C1CCCN1C(=O)Oc1cccc([N+](=O)[O-])c1 — lower, 130 to 131 °C
- Cc1ccc2c(ccn2C)c1O — lower, 68 °C
- Nc1cccc(C(=O)N2N=C(C(F)(F)F)CC2(O)c2cc(F)c(Cl)cc2F)c1 (stereo not given) — lower, 123 to 124 °C
- CSCC[C@@H]1C(=O)N(C)[C@H]([C@H](C)c2cccc3ccccc23)C(=O)N1C — lower, 88 to 90 °C
- CC1CN(C(=O)Cl)NC1=O (stereo not given) — lower, 145 °C
- c1ccc(-c2nc3c([nH]2)CCCC3CN2CCN(c3ncccn3)CC2)cc1 (stereo not given) — higher, 200 to 202 °C
- Cn1ncc(C(=O)Nc2ccc(-n3nc(C(F)(F)F)cc3C(F)(F)F)cc2)c1[N+](=O)[O-] — higher, 214 to 216 °C
- O=C(O)CCc1cnoc1-c1ccc(OC(F)(F)F)cc1 — lower, 116 to 118 °C
- COc1ccc(OC)c(OC)c1OC — lower, 84 to 85 °C
- COc1c(S(N)(=O)=O)cccc1S(=O)(=O)NC(=O)Nc1nc(C)cc(C)n1 — higher, 218 °C
- Cc1cc(-c2ccc(Cl)c(Cl)c2)nc(-c2cccc(-c3ccc(S(N)(=O)=O)s3)c2)n1 — higher, 238 °C
- O=C(O)C=CC(=O)NCCC(F)=C(F)F — lower, 64 to 66 °C
- O=C(O)C(c1ccc(Cl)cc1)c1ccc(-n2ncc(=O)[nH]c2=O)cc1Cl (stereo not given) — higher, 196 °C
- CC(=O)N(C(C)=O)c1ccc(C2=NN(C(C)=O)C(C)Cc3cc4c(cc32)OCO4)cc1 (stereo not given) — higher, 224 to 227 °C
- COc1cc(O)c2c(=O)c(OC)c(-c3ccc(O)cc3)oc2c1 — higher, 252 to 253 °C
- COc1c(N2CCC(N)C(C)C2)c(F)cc2c(=O)c(C(=O)O)cn(C3CC3)c12 (stereo not given) — higher, 240 to 242 °C
- COC(=O)c1c(Oc2ccccc2[N+](=O)[O-])c2ccccc2n1C — lower, 119 to 121 °C
- Cc1cccc(Nc2nc(N)ncc2S(N)(=O)=O)c1 — higher, 213 to 215 °C
- CCC(C)C(NS(=O)c1ccc(C)cc1)C1(C(=O)NC)SCCS1 (stereo not given) — lower, 147 to 154 °C
- Cc1cc(-c2[nH]nc3c2C(=O)c2c(NC(N)=O)cccc2-3)c(C)s1 — higher, > 280 °C
- N#CCc1cccc(Cc2ccccc2)c1 — lower, 136 to 137 °C
- O=C(OCC1(COC(=O)c2ccccc2)c2ccccc2-c2ccccc21)c1ccccc1 — lower, 144 to 146 °C
- O=C1OC(CCCN2CCN(c3ncccn3)CC2)CN1c1ccccc1 (stereo not given) — lower, 92 to 98 °C
- CNC(=O)Nc1cccc(C2=NC(C)(C)Cc3cc(OC)c4c(c32)CC(C)(C)O4)c1 — lower, 125 to 127 °C
- NC(=O)C1(c2ccc(F)cc2)OC(=O)c2ccccc21 (stereo not given) — higher, 170 to 173 °C
- COc1ccc(-c2cccc(F)c2)cc1 — lower, 63 to 64 °C
- c1ccc(CN2CC3OC(C4OCCO4)(C2)c2ccccc23)cc1 (stereo not given) — lower, 78 to 79.5 °C
- COc1cc2c3c(c1)[nH]c(=S)n3CCC2 — higher, 188 to 192 °C
- Cc1cccc(-c2n[nH]cc2-c2ccc(F)c(-c3cn4c(n3)S(=O)CC4)c2)n1 (stereo not given) — lower, 140 to 144 °C
